According to US20080096967A1, “Formulations for Injection of Catecholic Butanes, Including Ndga Compounds, Into Animals” (priority 2005, published 2008):

Tested on: HeLa, an HPV-18 positive human cervical cancer cell line
Experiment: Cell proliferation and cell death, trypan blue exclusion, HeLa cells
Type: cell-based
Experimental: M4N in 10% (w/v) HP-β-CD and 25% (v/v) PEG 300 (hereafter, the “CPE formulation”), M4N in 30% (w/v) HP-β-CD and 25% (v/v) PEG 300 (hereafter, the “CPE 25/30 formulation”) and M4N in 27% (w/v) HP-β-CD and 33% (v/v) PEG 300 (hereafter, the “CPE 33/27 formulation”) was tested for their effects on cell death and proliferation on two different tumor cell lines: HeLa, an HPV-18 positive human cervical cancer cell line, and C-33A, an HPV-negative human cervical cancer cell line M4N in DMSO was also tested in parallel. Both tumor cell lines were treated with increasing amounts of M4N: 0 μM, 20 μM, 40 μM, 60 μM and 80 μM, for 72 hr with the DMSO or the CPE formulation. Each formulation was added to total 1% of the growth media (Minimal Essential Medium with L-glutamine supplemented with 10% fetal bovine serum, 1 mM sodium pyruvate, 1× non-essential amino acid solution, and 1,000 IU/mL penicillin/1,000 μg/mL streptomycin solution). Control cells were grown under the same conditions and were left untreated. After 72 hr of treatment or no treatment, the total number of cells and the number of live cells in each sample were counted, using the trypan blue exclusion method. The cell proliferation rate and the percentage of dead cells in each sample were analyzed. Results of this experiment are shown in FIG. 1, FIG. 2, and Tables 6 through 12.
FIG. 1 is a graphical representation of the ratio of the number of treated cells/number of untreated cells plotted against increasing concentrations of M4N in either the DMSO formulation or the CPE formulation for treatment of the C-33A cells and HeLa cells. FIG. 2 is a graphical representation of the percentage of dead cells plotted against increasing concentrations of M4N and in either DMSO formulation or the CPE formulation for treatment of the two cancer cell lines, C-33A and HeLa cells in culture.
Various lots of M4N were tested to show the effectiveness of the drug of different lots. HeLa cells were treated with increasing amounts of M4N: 0 μM, 20 μM, 40 μM, 60 μM and 80 μM, for 72 hr with the CPE formulation. Each formulation was added to total 1% of the growth media (Minimal Essential Medium with L-glutamine supplemented with 10% fetal bovine serum, 1 mM sodium pyruvate, 1× non-essential amino acid solution, and 1,000 IU/mL penicillin/1,000 μg/mL streptomycin solution). Control cells were grown under the same conditions and were left untreated. After 72 hr of treatment or no treatment, the total number of cells and the number of live cells in each sample were counted, using the trypan blue exclusion method. The cell proliferation rate and the percentage of dead cells in each sample were analyzed.

[1] = M4N 20 μM in CPE 25/30 formulation, 72 hr
[2] = M4N 20 μM in CPE 25/30 formulation, 72 hr, at 3 months
[3] = M4N 20 μM in CPE 33/27 formulation, 72 hr, time zero
[4] = M4N 20 μM in CPE formulation, 72 hr, at 3 months
[5] = M4N 20 μM in CPE formulation, 72 hr, at 9 months
[6] = M4N 20 μM in CPE formulation, 72 hr, at 12 months
[7] = M4N 20 μM in CPE formulation, 72 hr, comparison with CPE 25/30
[8] = M4N 20 μM in CPE formulation, 72 hr, time 0
[9] = M4N 20 μM in CPE formulation, 72 hr, time zero, comparison with CPE 33/27
[10] = M4N 20 μM in DMSO, 72 hr, at 9 months
[11] = M4N 20 μM in DMSO, 72 hr, at 12 months
[12] = M4N 20 μM in DMSO, 72 hr, time 0
[13] = M4N 40 μM in CPE 25/30 formulation, 72 hr
[14] = M4N 40 μM in CPE 25/30 formulation, 72 hr, at 3 months
[15] = M4N 40 μM in CPE 33/27 formulation, 72 hr, time zero
[16] = M4N 40 μM in CPE formulation, 72 hr, at 3 months
[17] = M4N 40 μM in CPE formulation, 72 hr, at 9 months
[18] = M4N 40 μM in CPE formulation, 72 hr, at 12 months
[19] = M4N 40 μM in CPE formulation, 72 hr, comparison with CPE 25/30
[20] = M4N 40 μM in CPE formulation, 72 hr, time 0
[21] = M4N 40 μM in CPE formulation, 72 hr, time zero, comparison with CPE 33/27
[22] = M4N 40 μM in DMSO, 72 hr, at 9 months
[23] = M4N 40 μM in DMSO, 72 hr, at 12 months
[24] = M4N 40 μM in DMSO, 72 hr, time 0
[25] = M4N 60 μM in CPE 25/30 formulation, 72 hr
[26] = M4N 60 μM in CPE 25/30 formulation, 72 hr, at 3 months
[27] = M4N 60 μM in CPE 33/27 formulation, 72 hr, time zero
[28] = M4N 60 μM in CPE formulation, 72 hr, at 3 months

SMILES: COc1ccc(C[C@@H](C)[C@@H](C)Cc2ccc(OC)c(OC)c2)cc1OC [Formulation M4N, meso-1,4-bis(3,4-dimethoxyphenyl)-2,3-dimethylbutane]
- cell death, share of the cell population (80 μM or […] M4N in CPE formulation): about 20%
- cell death, share of the cell population (80 μM or […] M4N in DMSO formulation): about 40%
- M4N sufficient to cause about a 50% inhibition in cell proliferation (CPE formulation, 72 hr): ~7.2 µg/mL
- effectiveness of the drug of different lots (CPE formulation, lots EM1001 and EM1002): remains the same
- % Dead Cells [1]: 9.4%
- % Viability [1]: 90.7%
- Proliferation Rate [1]: 0.34
- % Dead Cells [2]: 11.9%
- % Viability [2]: 88.1%
- Proliferation Rate [2]: 0.39
- % Dead Cells [3]: 10.9%
- % Viability [3]: 89.2%
- Proliferation Rate [3]: 0.43
- % Dead Cells [4]: 9.0%
- % Viability [4]: 91.0%
- Proliferation Rate [4]: 0.39
- % Dead Cells [5]: 31.3%
- % Viability [5]: 68.7%
- Proliferation Rate [5]: 0.24
- % Dead Cells [6]: 3.3%
- % Viability [6]: 96.8%
- Proliferation Rate [6]: 0.74
- % Dead Cells [7]: 6.6%
- % Viability [7]: 93.5%
- Proliferation Rate [7]: 0.33
- % Dead Cells [8]: 4.4%
- % Viability [8]: 95.6%
- Proliferation Rate [8]: 0.52
- % Dead Cells [9]: 11.9%
- % Viability [9]: 88.1%
- Proliferation Rate [9]: 0.35
- % Dead Cells [10]: 10.7%
- % Viability [10]: 89.3%
- Proliferation Rate [10]: 0.19
- % Dead Cells [11]: 12.6%
- % Viability [11]: 87.4%
- Proliferation Rate [11]: 0.23
- % Dead Cells [12]: 9.9%
- % Viability [12]: 90.1%
- Proliferation Rate [12]: 0.25
- % Dead Cells [13]: 11.0%
- % Viability [13]: 89.1%
- Proliferation Rate [13]: 0.31
- % Dead Cells [14]: 13.4%
- % Viability [14]: 86.6%
- Proliferation Rate [14]: 0.32
- % Dead Cells [15]: 13.6%
- % Viability [15]: 86.4%
- Proliferation Rate [15]: 0.19
- % Dead Cells [16]: 16.5%
- % Viability [16]: 83.5%
- Proliferation Rate [16]: 0.09
- % Dead Cells [17]: 27.2%
- % Viability [17]: 72.8%
- Proliferation Rate [17]: 0.10
- % Dead Cells [18]: 5.0%
- % Viability [18]: 95.0%
- Proliferation Rate [18]: 0.21
- % Dead Cells [19]: 23.4%
- % Viability [19]: 76.7%
- Proliferation Rate [19]: 0.08
- % Dead Cells [20]: 9.4%
- % Viability [20]: 90.6%
- Proliferation Rate [20]: 0.28
- % Dead Cells [21]: 25.9%
- % Viability [21]: 74.2%
- Proliferation Rate [21]: 0.14
- % Dead Cells [22]: 8.8%
- % Viability [22]: 91.2%
- Proliferation Rate [22]: 0.14
- % Dead Cells [23]: 13.7%
- % Viability [23]: 86.4%
- Proliferation Rate [23]: 0.04
- % Dead Cells [24]: 13.2%
- % Viability [24]: 86.8%
- Proliferation Rate [24]: 0.25
- % Dead Cells [25]: 22.8%
- % Viability [25]: 77.3%
- Proliferation Rate [25]: 0.12
- % Dead Cells [26]: 23.1%
- % Viability [26]: 76.9%
- Proliferation Rate [26]: 0.11
- % Dead Cells [27]: 29.3%
- % Viability [27]: 70.7%
- Proliferation Rate [27]: 0.10
- % Dead Cells [28]: 43.1%
- % Viability [28]: 56.9%
